Laboratory results reported in patent publication US11179391B2, “Compound with kinase inhibitory activity and preparation method and use thereof” (priority 2017, dated 2021).
Structures can show the parent of a compound that is named as a salt. Where two headings read alike, the source gives them in different places.

What was measured:
Type in all cases: biochemical
[1] = molecular target: CDK4/CycD3 (Homo sapiens, UniProt P11802); assay: Determination of CDK activity (Caliper mobility shift, FAM-P8 peptide): CDK4; conditions: read-out: CDK4 enzymatic inhibitory activity (IC50)
Sequence of CDK4/CycD3 (P11802 whole entry): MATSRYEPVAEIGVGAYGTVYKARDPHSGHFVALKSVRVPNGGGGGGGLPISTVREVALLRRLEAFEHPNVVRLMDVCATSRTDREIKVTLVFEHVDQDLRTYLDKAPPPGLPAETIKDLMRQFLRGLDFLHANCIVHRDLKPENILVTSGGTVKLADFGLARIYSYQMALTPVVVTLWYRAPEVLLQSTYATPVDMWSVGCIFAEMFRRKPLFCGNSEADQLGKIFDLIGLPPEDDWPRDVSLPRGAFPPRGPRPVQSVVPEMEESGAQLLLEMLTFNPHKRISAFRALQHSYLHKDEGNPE
Sequence of CDK4/CycD3 (P30281 whole entry partner): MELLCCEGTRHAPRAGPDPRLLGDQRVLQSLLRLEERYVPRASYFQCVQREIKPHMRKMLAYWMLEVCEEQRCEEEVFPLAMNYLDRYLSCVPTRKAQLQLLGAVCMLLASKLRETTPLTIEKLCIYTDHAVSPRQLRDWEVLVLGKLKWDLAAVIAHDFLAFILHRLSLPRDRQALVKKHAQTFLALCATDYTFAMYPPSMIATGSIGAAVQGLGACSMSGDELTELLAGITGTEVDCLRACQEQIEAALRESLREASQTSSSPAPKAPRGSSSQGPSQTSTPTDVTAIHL
Protocol: (§1) In vitro, CDK (CDK4, CDK6, CDK1, CDK2, CDK7, and CDK9) kinase activity was tested by the following method.
(§2) CDK and raw materials used here: CDK4/CycD3 (Carna, Cat. No 04-105, Lot. No 10CBS-0429 C, GST-CDK4(1-303end)/GST-CycD3(1-292end)); CDK6/cycD3 (Carna, Cat. No 04-107, Lot. No 09CBS-0622K, GST-CDK6(1-326(end))); CDK1/CyclinB (Millipore, Cat. 14-450k, Lot. No 25729U, His-CDK1+GST-cyclinB); CDK2/CycA2 (Carna, Cat. No 04-103, Lot. No 06CBS-3024, GST-CDK2 (1-298(end))); CDK7/CyclinH/MAT1 (Millipore, Cat. No 14-476M, Lot. No WAB0365-A, His-CDK7+GST-MAT1+cyclinH); CDK9/cyclinTl (Millipore, Cat. No 14-685K, Lot. No. 2476163-A, His-CDK9+cyclinTl); Peptide FAM-P8 (GL Biochem, Cat. No. 112396, Lot. No. P100804-XZ112396); ATP (Sigma, Cat. No. A7699-1G, CAS No. 987-65-5); DMSO (Sigma, Cat. No. D2650, Lot. No. 474382); EDTA (Sigma, Cat. No. E5134, CAS No. 60-00-4); 96-well plate (Corning, Cat. No. 3365, Lot. No. 22008026); 384-well plate (Corning, Cat. No. 3573, Lot. No. 12608008); Staurosporine (Sigma, Cat. No. S4400-1MG, Lot. No. 046K4080).
(§3) 1. Prepared 1× Kinase Buffer and Stop Buffer for the Test
2) 1× Kinase Base Buffer (CDK4).
(§4) 1) Diluted the compound to 50 times of the maximum concentration with 100% DMSO. For example, if the desired maximum inhibitory concentration is 10 μM, then a DMSO solution of 500 μM concentration is required.
(§5) 2) Transferred the compound to a 96-well plate and serially diluted the compound from a 100% DMSO solution at a ratio of 30 μm to 60 μm for a total of 10 concentrations gradients. 3) Transferred 100 μm of 100% DMSO to two empty wells as a no compound control and a no enzyme control.
(§6) 4) Prepared intermediate plate and transferred the compound of 10 μm concentration from the original plate to the intermediate plate, and then 90 μm of 1× kinase buffer was added and mixed by shaking for 10 min.
(§7) 4) Preparing intermediate plate and transferred the compound of […] concentration from the original plate to the intermediate plate, and then 90 μm of 1× kinase buffer was added and mixed by shaking for 10 min.
(§8) 1) Transferred 5 μm of each compound from the 96-well intermediate plate to a 384-well plate. For example, A1 of the 96-well plate was transferred to A1 and A2 of the 384-well plate. A2 of the 96-well plate was transferred to A3 and A4 of the 384-well plate, and so on.
(§9) 1) Prepared a 2.5× enzyme solution: added kinase into 1× kinase base buffer.
(§10) 2) Prepared a 2.5× peptide solution: added FAM-labeled peptide and ATP into the 1× kinase base buffer.
(§11) 3) Transferred the 2.5× enzyme solution to the assay plate: Assay plate already contained 5 μm of 10% DMSO and transferred 10 μm of 2.5× enzyme solution to each well.
(§12) 4) Incubated at room temperature for 10 min.
(§13) 5) Transferred the 2.5× peptide solution to the assay plate: added 10 μm of 2.5× peptide solution to each well of the 384-well assay plate.
(§14) 6) Kinase reaction and termination: incubated at 28° C. for a specified period and added 25 μm of stop buffer to stop the reaction.
(§15) 5. Caliper Reading: Collect Data on Caliper.
(§16) 1) Copied conversion data from Caliper program and Converted conversion values to inhibition values: Inhibition rate (%)=(1−OD value of the compound-OD value of the control well)/(OD value of the control empty-OD value of the control well)*100%.
(§17) 2) Fitted the data in XLFit excel add-in version 4.3.1 to give the corresponding IC50 values.

[2] = molecular target: CDK6/cycD3 (Homo sapiens, UniProt Q00534); assay: Determination of CDK activity (Caliper mobility shift, FAM-P8 peptide): CDK6; conditions: read-out: CDK6 enzymatic inhibitory activity (IC50)
Sequence of CDK6/cycD3 (Q00534 whole entry): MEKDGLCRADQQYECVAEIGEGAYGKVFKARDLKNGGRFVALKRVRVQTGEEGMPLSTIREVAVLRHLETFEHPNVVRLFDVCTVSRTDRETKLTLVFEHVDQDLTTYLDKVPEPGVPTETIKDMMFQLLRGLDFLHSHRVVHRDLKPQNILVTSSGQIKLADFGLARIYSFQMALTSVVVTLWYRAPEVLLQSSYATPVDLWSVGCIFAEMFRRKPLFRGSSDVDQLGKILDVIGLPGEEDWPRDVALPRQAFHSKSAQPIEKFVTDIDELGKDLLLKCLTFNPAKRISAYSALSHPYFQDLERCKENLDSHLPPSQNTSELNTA
Sequence of CDK6/cycD3 (P30281 whole entry partner): as the sequence (P30281 whole entry partner) above
Protocol: as §1, §2, §3
(§18) 1) 1× Kinase Base Buffer (CDK1, 2, and 6).
as §4, §5, §6, §7, §8, §9, §10, §11, §12, §13, §14, §15, §16, §17

[3] = molecular target: CDK1/CyclinB (Homo sapiens, UniProt P06493); assay: Determination of CDK activity (Caliper mobility shift, FAM-P8 peptide): CDK1; conditions: read-out: CDK1 enzymatic inhibitory activity (IC50)
Sequence of CDK1/CyclinB (P06493 whole entry): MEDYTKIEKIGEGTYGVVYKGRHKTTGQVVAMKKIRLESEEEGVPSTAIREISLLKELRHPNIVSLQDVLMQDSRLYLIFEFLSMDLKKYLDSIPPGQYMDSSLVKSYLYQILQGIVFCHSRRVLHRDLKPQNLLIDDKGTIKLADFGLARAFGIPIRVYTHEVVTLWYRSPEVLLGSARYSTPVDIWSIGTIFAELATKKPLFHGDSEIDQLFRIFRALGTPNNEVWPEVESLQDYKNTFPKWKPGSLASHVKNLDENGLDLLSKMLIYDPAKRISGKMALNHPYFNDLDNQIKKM
Sequence of CDK1/CyclinB (P14635 whole entry partner): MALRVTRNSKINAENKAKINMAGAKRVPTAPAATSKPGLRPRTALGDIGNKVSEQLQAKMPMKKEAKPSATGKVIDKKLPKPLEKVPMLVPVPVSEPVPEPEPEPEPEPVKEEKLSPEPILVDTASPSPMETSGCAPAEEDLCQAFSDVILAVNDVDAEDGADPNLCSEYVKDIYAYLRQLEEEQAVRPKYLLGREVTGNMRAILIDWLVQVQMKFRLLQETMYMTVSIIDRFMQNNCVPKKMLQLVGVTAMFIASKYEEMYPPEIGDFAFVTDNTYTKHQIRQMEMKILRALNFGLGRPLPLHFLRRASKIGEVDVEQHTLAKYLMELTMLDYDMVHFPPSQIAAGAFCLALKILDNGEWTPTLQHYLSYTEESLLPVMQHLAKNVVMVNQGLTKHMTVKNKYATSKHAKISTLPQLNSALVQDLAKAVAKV
Protocol: as §1, §3, §18, §4, §5
(§19) 1) Transferred 5 μm of each compound from the 96-well intermediate plate to a 384-well plate. […] A2 of the 96-well plate was transferred to A3 and A4 of the 384-well plate, and so on.
as §9, §10, §11, §12, §13, §14, §15, §16, §17

[4] = molecular target: CDK2/CycA2 (Homo sapiens, UniProt P24941); assay: Determination of CDK activity (Caliper mobility shift, FAM-P8 peptide): CDK2; conditions: read-out: CDK2 enzymatic inhibitory activity (IC50)
Protocol: as §1, §3, §18, §4, §5, §19, §9, §10, §11, §12, §13, §14, §15, §16, §17

[5] = molecular target: CDK7/CyclinH/MAT1 (Homo sapiens, UniProt P50613); assay: Determination of CDK activity (Caliper mobility shift, FAM-P8 peptide): CDK7; conditions: read-out: CDK7 enzymatic inhibitory activity (IC50)
Sequence of CDK7/CyclinH/MAT1 (P50613 whole entry): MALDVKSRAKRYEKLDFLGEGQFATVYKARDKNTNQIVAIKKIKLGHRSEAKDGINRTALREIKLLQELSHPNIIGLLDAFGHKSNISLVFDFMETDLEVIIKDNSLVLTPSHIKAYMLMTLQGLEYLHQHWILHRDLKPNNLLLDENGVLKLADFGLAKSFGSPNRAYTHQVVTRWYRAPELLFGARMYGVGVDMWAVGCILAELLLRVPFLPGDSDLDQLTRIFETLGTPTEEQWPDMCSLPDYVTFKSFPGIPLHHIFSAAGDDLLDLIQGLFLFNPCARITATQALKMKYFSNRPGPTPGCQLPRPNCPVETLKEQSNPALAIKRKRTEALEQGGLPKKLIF
Sequence of CDK7/CyclinH/MAT1 (P51946 whole entry partner): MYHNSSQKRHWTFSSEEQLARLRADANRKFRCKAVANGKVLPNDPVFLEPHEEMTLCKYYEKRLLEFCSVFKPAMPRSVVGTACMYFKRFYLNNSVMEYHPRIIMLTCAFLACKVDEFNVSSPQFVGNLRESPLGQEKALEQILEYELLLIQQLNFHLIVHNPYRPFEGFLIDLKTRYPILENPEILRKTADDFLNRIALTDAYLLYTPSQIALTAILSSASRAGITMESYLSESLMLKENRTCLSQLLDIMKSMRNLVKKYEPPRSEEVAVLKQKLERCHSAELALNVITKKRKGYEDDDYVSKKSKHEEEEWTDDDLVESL
Sequence of CDK7/CyclinH/MAT1 (P51948 whole entry partner): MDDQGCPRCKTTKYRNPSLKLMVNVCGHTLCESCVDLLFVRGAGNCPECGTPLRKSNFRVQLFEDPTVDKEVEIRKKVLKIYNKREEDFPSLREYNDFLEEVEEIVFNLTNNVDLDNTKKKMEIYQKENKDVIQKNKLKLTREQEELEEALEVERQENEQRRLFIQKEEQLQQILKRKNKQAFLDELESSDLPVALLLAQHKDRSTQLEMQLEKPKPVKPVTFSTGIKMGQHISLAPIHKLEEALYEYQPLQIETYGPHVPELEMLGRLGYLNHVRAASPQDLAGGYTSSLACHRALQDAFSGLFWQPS
Protocol: as §1, §2, §3
(§20) 3) 1× Kinase Base Buffer (CDK7 and 9).
as §4, §5, §6, §7, §8, §9, §10, §11, §12, §13, §14, §15, §16, §17

[6] = molecular target: CDK9/cyclinTl (Homo sapiens, UniProt P50750); assay: Determination of CDK activity (Caliper mobility shift, FAM-P8 peptide): CDK9; conditions: read-out: CDK9 enzymatic inhibitory activity (IC50)
Sequence of CDK9/cyclinTl (P50750 whole entry): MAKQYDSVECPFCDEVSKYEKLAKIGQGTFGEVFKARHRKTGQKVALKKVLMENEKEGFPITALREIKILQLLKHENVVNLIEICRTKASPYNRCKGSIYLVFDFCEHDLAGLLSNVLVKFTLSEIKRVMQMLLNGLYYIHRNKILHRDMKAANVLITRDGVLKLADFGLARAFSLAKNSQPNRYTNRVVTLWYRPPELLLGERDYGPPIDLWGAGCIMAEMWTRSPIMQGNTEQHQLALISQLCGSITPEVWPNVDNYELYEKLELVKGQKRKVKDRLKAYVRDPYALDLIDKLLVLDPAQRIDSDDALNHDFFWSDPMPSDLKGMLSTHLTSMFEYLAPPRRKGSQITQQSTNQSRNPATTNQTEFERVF
Sequence of CDK9/cyclinTl (O60563 whole entry partner): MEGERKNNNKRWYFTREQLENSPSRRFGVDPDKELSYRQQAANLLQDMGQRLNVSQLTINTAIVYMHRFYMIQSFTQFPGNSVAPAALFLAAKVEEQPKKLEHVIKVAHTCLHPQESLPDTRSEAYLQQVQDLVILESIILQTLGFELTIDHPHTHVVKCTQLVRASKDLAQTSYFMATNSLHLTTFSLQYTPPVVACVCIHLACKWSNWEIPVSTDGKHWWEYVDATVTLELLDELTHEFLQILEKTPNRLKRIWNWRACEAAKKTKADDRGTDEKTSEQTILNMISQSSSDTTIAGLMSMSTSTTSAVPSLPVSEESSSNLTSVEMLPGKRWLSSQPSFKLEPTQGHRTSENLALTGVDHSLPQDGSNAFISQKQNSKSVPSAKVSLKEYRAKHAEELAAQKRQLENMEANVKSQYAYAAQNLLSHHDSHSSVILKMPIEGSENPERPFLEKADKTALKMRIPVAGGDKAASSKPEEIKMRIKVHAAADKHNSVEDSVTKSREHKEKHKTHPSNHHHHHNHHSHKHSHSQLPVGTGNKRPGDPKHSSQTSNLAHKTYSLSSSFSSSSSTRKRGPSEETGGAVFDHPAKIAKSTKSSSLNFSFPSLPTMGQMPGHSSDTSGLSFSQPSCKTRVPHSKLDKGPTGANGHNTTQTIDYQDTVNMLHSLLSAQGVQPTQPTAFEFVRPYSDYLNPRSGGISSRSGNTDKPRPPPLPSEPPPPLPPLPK
Protocol: as §1, §3, §20, §4, §5, §19, §9, §10, §11, §12, §13, §14, §15, §16, §17

| IC50 ([1]; CDK4/CycD3) [nM] | IC50 ([2]; CDK6/cycD3) [nM] | IC50 ([3]; CDK1/CyclinB) [nM] | IC50 ([4]; CDK2/CycA2) [nM] | IC50 ([5]; CDK7/CyclinH/MAT1) [nM] | IC50 ([6]; CDK9/cyclinTl) [nM] | IC50 [1] [nM] | IC50 [2] [nM] | IC50 [3] [nM] | IC50 [4] [nM] | IC50 [5] [nM] | IC50 [6] [nM] | Compound |
| --- | --- | --- | --- | --- | --- | --- | --- | --- | --- | --- | --- | --- |
| 100 to 500 | 100 to 500 | 500 to 1000 | 500 to 1000 | 1000 to 10000 | 500 to 1000 | – | – | – | – | – | – | CC[C@H](c1ccc(Nc2ncc(F)c(-c3cc(F)c4nc(C)n(C(C)C)c4c3)n2)nc1)C1CCN(CC)CC1 [Example 26] |
| < 100 | 100 to 500 | 500 to 1000 | 100 to 500 | 1000 to 10000 | 500 to 1000 | – | – | – | – | – | – | Cc1nc2c(F)cc(-c3nc(Nc4ccc([C@@H](C)C5CCN(C)CC5)cn4)ncc3F)cc2n1C(C)C (single isomer, unassigned) [Example 22] |
| < 100 | 100 to 500 | 500 to 1000 | 100 to 500 | 1000 to 10000 | 500 to 1000 | – | – | – | – | – | – | CCN1CCC(C(C)c2ccc(Nc3ncc(F)c(-c4cc(F)c5nc(C)n(C(C)C)c5c4)n3)nc2)CC1 (single isomer, unassigned) [Example 18, (R or S)—N-(5-(1-(1-ethylpiperidin-4-yl)ethyl)pyridin-2-yl)-5-fluoro-4-(4-fluoro-1-isopropyl-2-methyl-1H-benzo[d]imidazol-6-yl) pyrimidin-2-amine] |
| < 100 | 100 to 500 | 100 to 500 | < 100 | 1000 to 10000 | 100 to 500 | – | – | – | – | – | – | CCN1CCC([C@H](OC)c2ccc(Nc3ncc(F)c(-c4cc(F)c5nc(C)n(C(C)C)c5c4)n3)nc2)CC1 [Example 46] |

More lines, now with the values behind:

| Compound | IC50 ([1]; CDK4/CycD3) [nM] | IC50 ([2]; CDK6/cycD3) [nM] | IC50 ([3]; CDK1/CyclinB) [nM] | IC50 ([4]; CDK2/CycA2) [nM] | IC50 ([5]; CDK7/CyclinH/MAT1) [nM] | IC50 ([6]; CDK9/cyclinTl) [nM] | IC50 [1] [nM] | IC50 [2] [nM] | IC50 [3] [nM] | IC50 [4] [nM] | IC50 [5] [nM] | IC50 [6] [nM] |
| --- | --- | --- | --- | --- | --- | --- | --- | --- | --- | --- | --- | --- |
| Cc1nc2c(F)cc(-c3nc(Nc4ccc(C=C5CCN(CC(F)(F)F)CC5)cn4)ncc3F)cc2n1C(C)C [Example 70] | < 100 | < 100 | 100 to 500 | < 100 | 1000 to 10000 | 100 to 500 | – | – | – | – | – | – |
| C=C(c1ccc(Nc2ncc(F)c(-c3cc(F)c4nc(C)n(C(C)C)c4c3)n2)nc1)C1CCNCC1 [Example 34] | 100 to 500 | 100 to 500 | 500 to 1000 | 100 to 500 | 1000 to 10000 | 100 to 500 | – | – | – | – | – | – |
| CC(=C1CCN(C)CC1)c1ccc(Nc2ncc(F)c(-c3cc(F)c4nc(C)n(C(C)C)c4c3)n2)nc1 [Example 62] | < 100 | 500 to 1000 | 500 to 1000 | 100 to 500 | 1000 to 10000 | 500 to 1000 | – | – | – | – | – | – |
| Cc1nc2c(F)cc(-c3nc(Nc4ccc(C(O)C5CCNCC5)cn4)ncc3F)cc2n1C(C)C (stereo not drawn) [Example 42, (6-((5-Fluoro-4-(4-fluoro-1-isopropyl-2-methyl-1H-benzo[d]imidazol-6-yl)pyrimidin-2-yl)amino)pyridin-3-yl)(piperidin-4-yl) methanol hydrochloride] | – | – | – | – | – | – | 100 to 500 | 100 to 500 | 100 to 500 | < 100 | 100 to 500 | 100 to 500 |
| Cc1nc2c(F)cc(-c3nc(Nc4ccc(C=C5CCNCC5)cn4)ncc3F)cc2n1C(C)C [Example 59] | < 100 | 500 to 1000 | 500 to 1000 | 100 to 500 | 1000 to 10000 | 100 to 500 | – | – | – | – | – | – |
